B1: Zearalenone hydrolase (ZHD), C-terminally His6-tagged (enzyme, Clonostachys rosea)
chain: MDMRTRSTISTPNGITWYYEQEGTGPDIVLVPDGLGECQMFDSSVSQIAAQGFRVTTFDMPGMSRSAKAPAETYTEVTAQKLASYVISILDALDIKHATVWGCSSGASTVVALLLGYPDRIRNAMCHELPTKLLDHLSNTAVLEDEEISNILANVMLNDVSGGSEAWQALGVEVHARLHKNYPVWARGYPRTIPPSAPVQDVEALRGKPLDWTVGAATPTESFFDNIVTATKAGVNIGLLPGMHFPYVSHPDVFAKYVVETTQKHLWNSSSVDKLAAALE
notes: zearalenone hydrolase (ZHD) cloned from genomic DNA of a Clonostachys rosea strain (CGMCC); natural strain variant with eight amino-acid variations compared with GenBank ALI16790.1; 14-amino-acid linker between ZHD and the C-terminal His6 tag; The His6 is written under tags, the linker as a part; The substitutions count against GenBank ALI16790.1, not necessarily against the UniProt entry; also …

Key:
[1] = biological target: T1, ZHD (zearalenone hydrolase) (Clonostachys rosea, UniProt Q8NKB0, V26I/P69A/V87I/K148N/M168L/D170V/K198Q/L200V); test: HPLC of remaining ZEN; type: biochemical; details: 100 mM Tris-HCl pH 9.5, 30 °C, 15 nM ZHD, 1-50 µM ZEN
T1 construct: gene zhd101; full length; natural clone from genomic DNA of a CGMCC strain; extra N-terminal MD; E. coli BL21(DE3); dimer

[2] = biological target: the molecule itself; test: SEC; HiLoad 16/60 Superdex 200 prep-grade column, last step of the purification; oligomeric state from the elution position

Molecule | Km [1] | stoichiometry N [2]
C[C@H]1CCCC(=O)CCC/C=C/c2cc(O)cc(O)c2C(=O)O1 [ZEN, zearalenone] | 3.5 µM | –
B1 | – | 2
